{"source": "patent US20240057603A1", "about": "“ISOCYCLOSERAM FORMULATION” (SYNGENTA CROP PROTECTION AG, priority 2020, published 2024)", "experiment": "physchem", "details": "20 °C", "data": [{"smiles": "CCN1OCC(NC(=O)c2ccc(C3=NOC(c4cc(Cl)c(F)c(Cl)c4)(C(F)(F)F)C3)cc2C)C1=O", "note": "(stereo not shown) [Isocycloseram]", "values": [{"measurement": "solubility", "value": "< 5", "unit": "µg/mL"}]}]}
